Assays:
R5 HIV BaL = experiment: PBL infectivity assay, p24 ELISA day 7; format: cell-based, HIV-1; settings: Human immunodeficiency virus 1, BAL; PBLs from three donors
Excerpt: PBLs were isolated from buffy coats of HIV seronegative donors (New York Blood Center). The laboratory-adapted strains HIV BaL and HIV HXB2; primary isolates HIV 92BR020, 92UG031, 93BR029, and 93UG082; and multidrug resistant molecular clone NL4329129-2 were obtained from the NIH AIDS Repository. Primary isolate 2044 was from Paul Clapham (Windeyer Institute), and 1633 and 1638 from the Institute of Human Virology (University of Maryland School of Medicine). Maraviroc, efavirenz, raltegravir, and indinavir were from the NIH AIDS Repository. INK128 was purchased from ApexBio. Proliferation of PBLs was measured by the MTT kit (Roche), following the manufacturer's directions. PBL infectivity assays were performed as described herein.
PBLs were separated from buffy coats by density centrifugation over Ficoll-Hypaque (Sigma™), and activated by culture in the presence of 1 μg/mL anti-human CD3 antibody (clone x35, Fisher Scientific™) and 2 μg/mL anti-human CD28 antibody (Clone CD28.6, eBioscience™) for 3 days. Activated cells were infected by incubation with virus at a multiplicity of infection (MOI) of 0.001 for 2 hours. […] On day 7, viral replication was measured by p24 ELISA (Coulter) in culture supernatants and cell viability was measured by MTT assays.
EC50 values were determined by variable slope nonlinear regression analysis. […]

[1] = tested on: chronically HIV-infected U1 cell line; experiment: HIV activation in chronically infected U1 cells, p24 ELISA; format: cell-based; settings: INK128 <10 nM, day 3
Method: FIG. 5A-5C are bar graphs that illustrate INK128's inhibition of HIV activation in chronically infected cells. Latently HIV infected U1 cells were cultured in the presence of various concentrations of INK128 for 1 hour. Cultures were then untreated (FIG. 5A), or treated with HIV inducers PMA (FIG. 5B) and Tat protein (FIG. 5C). HIV production was measured by p24 ELISA in the culture supernatants on day 3 according to an embodiment.
The effects of INK128 on activation of HIV in the chronically HIV-infected U1 cell line were examined. The U1 cell line carries two copies of the HIV provirus per cell (33). Under basal conditions, U1 cells express low levels of HIV, but HIV expression is enhanced by stimulation with the phorbol ester PMA or by exogenous addition of Tat (34, 35). U1 cells were cultured in the presence of INK128 in the absence and presence of 10 nM PMA or 1 μg/mL Tat. […] As expected, unstimulated U1 cells produced low levels of HIV p24, but production was increased by addition of PMA or Tat.

[2] = tested on: full-length unspliced HIV mRNA; experiment: RT-PCR of unspliced HIV mRNA in U1 cells; format: cell-based; settings: 10 nM PMA, 2 days
Method: FIG. 6 is a bar graph that depicts how INK128 inhibits HIV transcription in U1 cells. U1 cells were cultured in the presence of 10 nM PMA and the indicated concentrations of INK128. After 2 days, cells were collected, mRNA isolated, quantified, reverse transcribed and amplified by real time PCR using unspliced HIV cDNA primer pair US.1a/US.2a and housekeeping [beta]-actin primers. For quantification, standard curves for unspliced HIV cDNA and [beta]-actin sequences were generated by performing 10-fold serial dilutions of mRNA isolated from PBLs acutely infected with HIV BaL. PCR amplification was performed using Quantitect® SYBR Green PCR Kit in a LightCycler®. Negative controls consisted of mixture reactions without the reverse transcription step according to an embodiment.
Total cellular RNA was isolated using the Qiagen™ RNA Isolation Kit (Qiagen™) RNA was then treated with DNase I, Amplification Grade (Invitrogen™), and reverse transcribed with SuperScript III First-Strand Synthesis Supermix™ (Invitrogen™) using hexamer primers. An aliquot of the cDNA was used as a template for PCR amplification of full length, unspliced HIV cDNA using primers US.1a and US.2a, and another aliquot for amplification with primer pairs specific for housekeeping [beta]-actin sequences (63).
The effects of INK128 on activation of HIV in the chronically HIV-infected U1 cell line were examined. […]

SMILES: CC(C)n1nc(-c2ccc3oc(N)nc3c2)c2c(N)ncnc21 [INK128, 5-(4-amino-1-propan-2-ylpyrazolo[3,4-d]pyrimidin-3-yl)-1,3-benzoxazol-2-amine]
- EC50 (R5 HIV BaL): 10.5 nM
- p24 production ([1]; U1 cells treated with 10 nM PMA): inhibited p24 production
- p24 production ([1]; U1 cells treated with 1 μg/mL Tat): inhibited p24 production
- p24 production ([1]; untreated U1 cells): inhibited p24 production
- synthesis of full-length unspliced HIV mRNA [2]: inhibits synthesis

— patent publication US11364242B2, “Treatment agents for inhibiting HIV and cancer in HIV infected patients” (UNIVERSITY OF MARYLAND, BALTIMORE, priority 2015, dated 2022)
